# Assay results published in patent US20160136194A1, “Pharmaceutical composition comprising a proton pump inhibitor and a prebiotic for the treatment of ulcerous lesions of the stomach and duodenum” (priority 2010, published 2016).
# Tests used:
# [1] = system: Helicobacter pylori; test: Microbiological method: isolation of H. pylori culture from patient material, before and after therapy; type: in vivo; details: share of patients positive, n = 10
# Description: (§1) There were enrolled 80 patients aged 19 to 57 years in the study: males and females with newly diagnosed gastric and duodenal ulcer, five from them with Zollinger-Ellison syndrome.
# (§2) All patients were divided into 8 groups of 10 patients each, 4 groups of them were experimental: the declared dosage forms on the base of PPI and prebiotic were orally administered by them. For the first group active components of the composition were omeprazole and a lactulose; for the second group—pantoprazole and prebiotic lactitol; for the third group—lansoprazole, and prebiotic inulin; for the fourth group—rabeprazole and prebiotic amino acids (glutamic acid). 5th, 6th, 7th and 8th groups were control: patients of the 5th group received monotherapy by omeprazole; patients of the 6th group—by lansoprazole; patients of the 7th group—esomeprazole and patients of the 8th group of patients received standard therapy for the elimination of H. pylori: omeprazole, metronidazole and clarithromycin.
# (§3) All patients received treatment according to the similar regimen: took the composition of PPI and prebiotic 1-2 times a day within 14 days.
# 4. Microbiological method. Inoculation and isolation of pure culture of H. pylori from the biopsy material of the mucosa, obtained by gastroduodenoscopy.
# Before the beginning and after the termination of the eradication therapy all 80 patients have been enrolled in the clinical trials were microbiologically tested on the presence of H. pylori, lactobacilli and bifidobacteria in the stomach and duodenum content.
# The material was analyzed in microbiological laboratory of the Pasteur Institute of Epidemiology and Microbiology, St. Petersburg.
# Strains of H. pylori were identified on the base of analysis of colony and cell morphology, cultural, biochemical and tinctorial properties of microorganisms. Lactobacillus strains isolated in the material from the intestine additionally were identified on catalase and oxidase activity.
# The bacterium quantity in the material was estimated by calculation of colonies on dense nutrient mediums that were represented in the form of Ig CFU/ml.
# [2] = system: Helicobacter pylori; test: Cytological test of the biopsy material of the gastric mucosa; type: in vivo; details: share of patients positive, n = 10
# Description: as §1, §2, §3
# 1. Cytological and histological examination of imprint smear of the biopsy material of the gastric antrum mucosa, obtained by gastroscopy. Thus, microcolonies of Helicobacter pylori are detected using special stain.
# [3] = system: Helicobacter pylori; test: Urease test of gastric mucosa biopsy material; type: in vivo; details: share of patients positive, n = 10
# Description: as §1, §2, §3
# 2. Urease test. The biopsy material of the gastric mucosa was examinated for the presence of the urease—enzyme specific for Helicobacter pylori (Helicobacter Test INFAI).
# [4] = system: gastric acid secretion; details: compared with PPI of the first generation; cited from earlier work
# [5] = after therapy (1-2 times a day, 14 days)
smiles,measurement,setting,value
"COc1ccc2[nH]c([S+]([O-])Cc3ncc(C)c(OC)c3C)nc2c1 (stereo not shown) [5th group, omeprazole]",Isolation of Helicobacter pylori from stomach content,[1]; [5],50%
same,Isolation of Helicobacter pylori from stomach content,"[1]; before therapy, peptic ulcer",100%
same,Cytological test of the biopsy material of the gastric mucosa,[2]; after therapy (14 days),40%
same,Cytological test of the biopsy material of the gastric mucosa,[2]; before therapy,80%
same,Urease test,[3]; after therapy (14 days),30%
same,Urease test,[3]; before therapy,70%
"COc1ccc2nc([S@@+]([O-])Cc3ncc(C)c(OC)c3C)[nH]c2c1 [7th group, esomeprazole]","Kept pH value <4 in stomach, above PPI of the first generation",[4],10-15%
same,Isolation of Helicobacter pylori from stomach content,[1]; [5],50%
same,Isolation of Helicobacter pylori from stomach content,"[1]; before therapy, peptic ulcer",100%
same,Cytological test of the biopsy material of the gastric mucosa,[2]; after therapy (14 days),40%
same,Cytological test of the biopsy material of the gastric mucosa,[2]; before therapy,70%
same,Urease test,[3]; after therapy (14 days),40%
same,Urease test,[3]; before therapy,60%
"Cc1c(OCC(F)(F)F)ccnc1C[S+]([O-])c1nc2ccccc2[nH]1 (stereo not shown) [6th group, lansoprazole]",Isolation of Helicobacter pylori from stomach content,[1]; [5],60%
same,Isolation of Helicobacter pylori from stomach content,"[1]; before therapy, peptic ulcer",100%
same,Cytological test of the biopsy material of the gastric mucosa,[2]; after therapy (14 days),40%
same,Cytological test of the biopsy material of the gastric mucosa,[2]; before therapy,60%
same,Urease test,[3]; after therapy (14 days),60%
same,Urease test,[3]; before therapy,70%
